# Test results published in patent publication US6262230A, “Analogs of thymosin α1” (SciClone Pharmaceuticals Inc., priority 1994, dated 2001).
# Several values for one entry are separate records, joined by “and”; a condition that tells them apart may be missing. Equal entries are not always repeated.
# System: endotoxic mice (lipopolysaccharide endotoxin from E. coli at 60 mg/kg)
# Assay: Survival of endotoxic mice following lethal endotoxin dose
# Assay type: in vivo, Swiss-Webster mice
# Details: endotoxin 60 mg/kg, 3 injections of 100 μg peptide at 5 minutes, 2 and 4 hours post endotoxin, alive at 0 hr: 10 (Tα1-N16-NH2 groups), 8 ([Glp]-Tα1, Tα1-Gly-NH2); for Number of Mice Alive Following Lethal Endotoxin Dose, 24 hr: endotoxin alone 4 of 10; for Number of Mice Alive Following Lethal Endotoxin Dose, 48 hr / Number of Mice Alive Following Lethal Endotoxin Dose, 72 hr / Number of Mice Alive Following Lethal Endotoxin Dose, 4 days / Number of Mice Alive Following Lethal Endotoxin Dose, 5 days: endotoxin alone 3 of 10
# Description: Swiss-Webster mice were treated in five groups: endotoxic mice (mice injected with lipopolysaccharide endotoxin from E. coli at 60 mg/kg) which were otherwise untreated, and endotoxic mice treated with 3 injections of 100 μg Thymosin α1 -N16 Amide (Tα1 -N16 -NH2) treated in two groups, Pyroglutamyl-desacetyl Thymosin α1 ([glp]-Tα1), or Thymosin α1 -Gly Amide (Tα1 -gly-NH2) at 5 minutes, 2 and 4 hours post administration of the endotoxin.
Substance,"Number of Mice Alive Following Lethal Endotoxin Dose, 24 hr","Number of Mice Alive Following Lethal Endotoxin Dose, 48 hr","Number of Mice Alive Following Lethal Endotoxin Dose, 72 hr","Number of Mice Alive Following Lethal Endotoxin Dose, 4 days","Number of Mice Alive Following Lethal Endotoxin Dose, 5 days"
Ac-Ser-Asp-Ala-Ala-Val-Asp-Thr-Ser-Ser-Glu-Ile-Thr-Thr-Lys-Asp-Leu-Lys-Glu- Lys-Lys-Glu-Val-Val-Glu-Glu-Ala-Glu-Asn-Gly-NH2 (Ac-SDAAVDTSSEITTKDLKEKKEVVEEAENG-NH2) [Tα1 -Gly-NH2],8,8,8,8,8
Ac-Ser-Asp-Ala-Ala-Val-Asp-Thr-Ser-Ser-Glu-Ile-Thr-Thr-Lys-Asp-Leu-NH2 (Ac-SDAAVDTSSEITTKDL-NH2) [Tα1 -N16 --NH2],5 and 8,4 and 8,4 and 7,4 and 7,4 and 7
